This data set in a line: Limit test on intravenous injection at 2000 mg/kg BW dose level. The class given is in vivo, Konmin mouse. How it is done: I. Test Animal (Subject): Konmin Mouse: Healthy, Adult, Male, Weight≤20 g, and n=5 pcs
III. Administration Route and Dose: 2000 mg/kg BW was Injected Via a Tail Vein
Administration capacity: the maximum injection capacity of the mice tail vein was 0.5 ml/once, slow injection
Dose and mode of administration: 40 mg/1.5 ml working solution was administered for 3 times within 9 h.
1) a test substance (synthetic peptide brap) having a dose of 2000 mg/kg was injected to the first Konmin mouse via tail vein;
2) whether of causing toxic responses (initial symptom, starting time, namely, time period after administration, severity and duration) was observed and recorded;
3) if the animal died, the response before being at death's door and the occurrence time of death were recorded.

[1] abbreviates: 2000 mg/kg BW via tail vein in 3 injections, individual mouse.

Ends that are not written are not given here.

As usually defined, the LD50 is the dose expected to kill half of the subjects tested. A lower LD50 goes with a more toxic substance. With RVLNGPEAPA [brap], under setting [1], the “Death situation/survival animals, 72 h after administering” value is listed as “No death” and the Toxic response manifestation entry is listed as “No abnormal”. In addition, under “intravenous injection of 2000 mg/kg BW, mice n=5”, the “Toxicity in the limit test” value was “no toxicity was found”. This sequence also registered an LD50 at 9 h (male, Konmin, in vivo, 2000 mg/kg BW, intravenous, mouse, judgment rule if survival animals ≥3 (5 of 5 survived)) of more than 2000 mg/kg.

These data come from patent US11401303B2, “Synthetic peptide BRAP and application in preparation of anti-inflammatory drug for COVID-19 thereof” (TAIAN CITY QIHANG BIOTECHNOLOGY CO., priority 2020, dated 2022).
